Common to all, as to format: physicochemical
Series [1] in a line: Oil or surfactant adsorption capacity on Sample S1 (ASTM D281 titration). As for the experimental part: Procedure: 2 to 5 g (based on bulk density) of the solid carrier material was placed in a 100 ml beaker and the oil or surfactant was added drop wise from a Burette, while mixing with spatula according to ASTM […]. The addition of oil or surfactant was continued until a thick paste-like mass formation. The addition of oil or surfactant was stopped when the mass appeared to contain excess oil. The Burette reading was recorded when the mass contained no excess oil or surfactant. The adsorption capacity was calculated using the below equation: [formula]

The nature of series [2]: Specific gravity of oils and surfactants.
A short description of series [3]: Oil release (Tocopherol) from tablets, dissolution with HPLC. The note with it: at 45 min, from tablets of Tocopherol loaded silica S2, 100 mg Tocopherol per tablet. As for the experimental part:
Oil Release (Tocopherol) from Tablets: The carrier materials used in the following trials was the material designated S2 in Example 1. Tocopherol was the liquid lipid that was loaded on to the silica. Silica S2 was loaded with liquid lipid pursuant to method of Example 8 and was used as the oil loaded carrier component in tablet. Tablets were prepared pursuant to the method in example 10. Tochopherol concentration in the tablet was 100 mg.
Tablets prepared were subjected to dissolution studies pursuant to the method described in Example 8. An aliquot of 2 mL was withdrawn at predetermined time interval and filtered through 0.22μ membrane filter. The dissolution samples were analyzed by using HPLC (Waters UPLC Wavelength: 294 nm Column: Rocket Format, 53×7 mm, 3μ) Mobile Phase: 85% ACN: 10% MeOH: 5% H2O.)

[4] abbreviates: oil adsorbed on Sample S1 material.

SMILES strings stand for the structures.

In series [1] (setting [4]), `Cc1c(C)c2c(c(C)c1O)CCC(C)(CCCC(C)CCCC(C)CCCC(C)C)O2` (racemic) [dl-α-Tocopherol] registered an Adsorption capacity of 292 g/100 g. In series [2] (oils, Table 2), the Specific gravity is listed as 0.950 g/mL. The Tocopherol release result in series [3] is “≈ 100%”.

For `CCCCCCCC/C=C\CCCCCCCC(=O)O` [Oleic acid], the Adsorption capacity in series [1] (setting [4]) is on record as 300 g/100 g. Besides, the Specific gravity in series [2] (oils, Table 2) came out at 0.895 g/mL.

In turn, `CCOCCOCCO` [Transcutol HP] gave an Adsorption capacity in series [1] (surfactant adsorbed on Sample S1 material) of 295 g/100 g. The same molecule registered a Specific gravity in series [2] (surfactants, Table 3) of 0.987 g/mL.

(Values after patent publication US10660856B2, “Porous silica gel as a carrier for liquid technologies” (W.R. Grace & Co.-Conn., priority 2013, dated 2020).)
